Earlier results on two compounds are cited in patent US20060183719A1 (priority 2005, published 2006).

Where two headings read alike, the source gives them in different places.

With `CN(C)c1ccc(O)c2c1CC1CC3C(N(C)C)C(O)=C(C(N)=O)C(=O)C3(O)C(O)=C1C2=O` (centres unmarked) [minocycline], the absorption result (in vivo, po) is listed as “about 90%”.

Take `C[C@H]1c2cccc(O)c2C(=O)C2=C(O)[C@]3(O)C(=O)C(C(N)=O)=C(O)[C@@H](N(C)C)[C@@H]3[C@@H](O)[C@@H]21` [doxycycline]: the absorption entry (administered orally) was “about 90%”.
